We go through 15 compounds from US11352322B2, “Cyclopropyl-amide compounds as dual LSD1/HDAC inhibitors” (Jubilant Epicore LLC, priority 2016, dated 2022).

For one series, the target named is LSD1 (Homo sapiens (Human), UniProt O60341). Briefly: TR-FRET Assay for LSD1. For orientation: In TR-FRET formats the signal depends on donor and acceptor labels being close together.
The target in series [1] is HDAC6 human recombinant enzyme (Homo sapiens (Human), UniProt Q9UBN7). Briefly: Histone Deacetylase Assay (BPS Biosciences), HDAC6. It counts as biochemical. The text has this:
Histone Deacetylase Assay (BPS Biosciences)
Histone deacetylase assay was done as per manufacturer's instructions.

A short description of series [2]: In vivo PK studies in mice. On the set-up: species or system Male Balb/C mice. The procedure: In Vivo PK Studies in Mice
All the animal experiments were approved by Institutional Animal Ethical Committee (IAEC/JDC/2015/72). Male Balb/C mice (n=24) were procured from Vivo Biotech, Hyderabad, India. The animals were housed in Jubilant Biosys animal house facility in a temperature (22±2° C.) and humidity (30-70%) controlled room (15 air changes/hour) with a 12:12 h light:dark cycles, had free access to rodent feed (Altromin Spezialfutter GmbH & Co. KG., Im Seelenkamp 20, D-32791, Lage, Germany) and water for one week before using for experimental purpose. Following ˜4 h fast (during the fasting period animals had free access to water) animals were divided into two groups (n=12/group). […] Post-dosing serial blood samples (100 μL, sparse sampling was done and at each time point three mice were used for blood sampling) were collected using Micropipettes (Microcaps®; catalogue number: 1-000-0500) through tail vein into polypropylene tubes containing K2.EDTA solution as an anti-coagulant at 0.25, 0.5, 1, 2, 4, 8, 10 and 24 (for oral study) and 0.12, 0.25, 0.5, 1, 2, 4, 8 and 24 (for intravenous study). Plasma was harvested by centrifuging the blood using Biofuge (Hereaus, Germany) at 1760 g for 5 min and stored frozen at −80±10° C. until analysis. Animals were allowed to access feed 2 h post-dosing.
Plasma concentration-time data of the compound was analyzed by non-compartmental method using Phoenix WinNonlin Version 6.3 (Pharsight Corporation, Mountain View, Calif.).

A short description of series [3]: Metabolic stability in liver microsomes, HLM. As to conditions: 1 μM, NADPH. In general terms: Liver microsomes are vesicles of endoplasmic reticulum, rich in cytochrome P450 enzymes.
Procedure: (§1) The microsomal suspension was prepared by adding liver microsomes to 100 mM potassium phosphate buffer (pH7.4) to give a final protein concentration of 0.5 mg/mL. The stock solution of NCE (10 mM in DMSO) was added to the microsomes to provide a final concentration of 1 μM. […] Samples were vortexed and centrifuged at 5,000 rpm for 10 min to remove proteins. Supernatant were analyzed on LC-MS/MS.
A short description of series [4]: Metabolic stability in liver microsomes, MLM. As to conditions: 1 μM, NADPH.
Procedure: as §1
Another series relates to MM1S. Briefly: Anticancer activity: Alamar Blue assay, MM1S. Type of series: cell-based. As to conditions: Homo sapiens, MM1.S, read-out: MM1S EC50. For orientation: The colour change of resazurin is a common sign of viable cells or microbes.
Where [5] appears, read: male, Balb/C, mouse, plasma, IV 2 mg/kg.

The structures appear in SMILES notation. Structures can show the parent of a compound that is named as a salt. Where two headings read alike, the source gives them in different places. Bounds are passed on as bounds.

HDAC6 human recombinant enzyme, sequence (Q9UBN7 whole entry): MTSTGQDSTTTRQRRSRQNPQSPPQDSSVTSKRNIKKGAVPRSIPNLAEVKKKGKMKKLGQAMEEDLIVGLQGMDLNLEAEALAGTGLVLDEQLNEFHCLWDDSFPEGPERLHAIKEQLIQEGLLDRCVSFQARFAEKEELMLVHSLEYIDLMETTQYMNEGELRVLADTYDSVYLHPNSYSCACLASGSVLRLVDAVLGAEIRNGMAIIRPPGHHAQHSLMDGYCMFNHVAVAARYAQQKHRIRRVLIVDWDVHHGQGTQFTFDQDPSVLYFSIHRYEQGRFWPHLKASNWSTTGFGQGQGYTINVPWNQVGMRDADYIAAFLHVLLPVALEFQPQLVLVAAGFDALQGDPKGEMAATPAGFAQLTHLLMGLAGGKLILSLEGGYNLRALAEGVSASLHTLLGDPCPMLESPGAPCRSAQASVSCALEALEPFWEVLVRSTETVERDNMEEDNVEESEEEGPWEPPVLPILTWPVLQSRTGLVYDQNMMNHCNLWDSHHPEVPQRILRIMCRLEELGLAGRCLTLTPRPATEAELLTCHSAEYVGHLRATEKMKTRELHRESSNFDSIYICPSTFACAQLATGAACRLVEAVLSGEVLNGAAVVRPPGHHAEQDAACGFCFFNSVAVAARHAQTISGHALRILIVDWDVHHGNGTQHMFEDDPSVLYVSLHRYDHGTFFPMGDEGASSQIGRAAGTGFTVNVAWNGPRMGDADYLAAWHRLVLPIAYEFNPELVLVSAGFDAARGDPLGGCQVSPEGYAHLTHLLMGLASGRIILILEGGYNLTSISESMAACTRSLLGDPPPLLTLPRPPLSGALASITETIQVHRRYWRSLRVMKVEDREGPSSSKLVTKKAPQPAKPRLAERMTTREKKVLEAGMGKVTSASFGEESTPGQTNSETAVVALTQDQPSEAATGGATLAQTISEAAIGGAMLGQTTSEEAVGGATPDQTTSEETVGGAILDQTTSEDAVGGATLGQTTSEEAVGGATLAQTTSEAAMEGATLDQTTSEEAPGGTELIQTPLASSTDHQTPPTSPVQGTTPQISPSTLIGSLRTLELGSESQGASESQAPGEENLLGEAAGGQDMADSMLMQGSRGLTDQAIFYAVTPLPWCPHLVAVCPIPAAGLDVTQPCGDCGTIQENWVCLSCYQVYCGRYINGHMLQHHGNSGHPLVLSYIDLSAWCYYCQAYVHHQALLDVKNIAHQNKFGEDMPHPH
Procedure for LSD1: TR-FRET Assay for LSD1 (Perkin Elmer)
Tranylcypromine (TCP), LSD1 inhibitor was procured from Selleckchem. […] Stop Solution containing 300 μM tranylcypromine in 1× LANCE Detection Buffer was added to the wells and incubated for 5 min at RT. Then, Detection mix containing 2 nM Eu-Ab and 50 nM ULight-Streptavidin in 1× LANCE Detection Buffer was prepared and added to the reaction mix. This mixture was incubated for 1 hour at room temperature.
Procedure for MM1S: Cells were seeded at 5000 cells/per well in 96-well tissue culture plate and incubated at 37° C./5% CO2. After 16-24 hours, fresh media was added to the wells. Compounds were then (1% DMSO conc.) added to the cells at 10 concentrations ranging from 10-0.0005 uM prepared in 3-fold serial dilutions. Cells were incubated for 68-72 h at 37° C./5% CO2. Alamar Blue™ reagent was added and incubated for 1-3 hours at 37° C./5% CO2. Plates were read on fluorescence reader at 540 nm excitation, 590 nm emission wave lengths.

A word on the IC50: it is the concentration that gives 50% inhibition. A word on the Vd: it is a proportionality between amount in the body and measured concentration, not a real space. Lower therefore signals confinement near the circulation. As usually defined, the Cmax is the highest concentration seen after dosing. A word on the bioavailability: it is dose-corrected exposure relative to a reference, in per cent. A higher bioavailability goes with good availability. Turning to `O=C(NO)c1ccc(CCCN2CCC(CNC3CC3c3ccc(-c4ccc(F)cc4)cc3)CC2)cc1` (stereo not drawn) [Example 57, 4-(3-(4-(((2-(4′-fluoro-[1,1′-biphenyl]-4-yl)cyclopropyl)amino)methyl)piperidin-1-yl)propyl)-N-hydroxybenzamide TFA Salt], the IC50 was 21 nM at LSD1 (read-out: LSD1 IC50) and 59 nM in series [1]. In addition, the “AUC IV” value in series [2] (IV 2 mg/kg) came out at 169 ng/mL/h. Further, in series [2] (PO 10 mg/kg), the “AUC PO” value was 677 ng/mL/h. In series [2] (setting [5]), the C0 came to 260 ng/mL. Moreover, in series [2] (setting [5]), the Vd is 28 L/kg. For the same compound, the Cmax turned out to be 254 ng/mL in series [2] (male, Balb/C, mouse, plasma, IV 2 mg/kg, read-out: CMax IV) and 217 ng/mL in series [2] (male, Balb/C, mouse, plasma, PO 10 mg/kg, read-out: CMax PO). The clearance in series [2] (male, Balb/C, mouse, plasma, IV 2 mg/kg, read-out: Cl IV) turned out to be 190 mL/min/kg. Further, the half-life in series [2] (male, Balb/C, mouse, plasma, IV 2 mg/kg, read-out: t1/2 IV (converted)) is 1.71 h; in series [2] (male, Balb/C, mouse, plasma, PO 10 mg/kg, read-out: t1/2 PO (converted)) it was 1.83 h. Moreover, in series [2] (male, Balb/C, mouse, plasma, dose IV/PO 2/10 mg/kg), the bioavailability was 80%. Moreover, the “Metabolic stability HLM % remaining in 30 min” value in series [3] was determined as 92%. In addition, in series [4], the “Metabolic stability MLM % remaining in 30 min” value is 75%.
As a reminder, the EC50 is the concentration needed to bring the measured effect to its halfway point. For the compound `O=C(NO)c1coc(CCCN2CCC(CNC3CC3c3ccccc3)CC2)n1.O=C(O)C(F)(F)F` (stereo not drawn) [Example 113, N-hydroxy-2-(3-(4-(((2-phenylcyclopropyl)amino)methyl)piperidin-1-yl)propyl)oxazole-4-carboxamide TFA Salt], the half-inhibitory concentration (IC50) is 26 nM on LSD1 and above 10000 nM in series [1]. In addition, the “Metabolic stability HLM % remaining in 30 min” value in series [3] is listed as 78%. In addition, in series [4], the “Metabolic stability MLM % remaining in 30 min” value turned out to be 76%. For the same compound, the EC50 with MM1S (MM1S cells) was above 10000 nM.
Take `Cn1cc(-c2ccc(C3CC3NCC3CCN(Cc4ccc(C(=O)Nc5ccccc5N)cc4)CC3)cc2)ccc1=O` (stereo not drawn) [Example 141, N-(2-aminophenyl)-4-((4-(((2-(4-(1-methyl-6-oxo-1,6-dihydropyridin-3-yl)phenyl)cyclopropyl)amino)methyl)piperidin-1-yl)methyl)benzamide TFA Salt]: the IC50 on LSD1 (read-out: LSD1 IC50) is 30 nM; in series [1], above 10000 nM. The “Metabolic stability HLM % remaining in 30 min” value in series [3] came to 88%. Besides, in series [4], the “Metabolic stability MLM % remaining in 30 min” value was 75%. For the same compound, in the series with MM1S, the half-maximal effective concentration (EC50) is 194 nM.
As to `O=C(NO)c1ccc(CCCN2CCC(NC3CC3c3ccccc3)CC2)cc1` (stereo not drawn) [Example 44, N-hydroxy-4-(3-(4-((2-phenylcyclopropyl)amino)piperidin-1-yl)propyl)benzamide TFA Salt], the IC50 on LSD1 (read-out: LSD1 IC50) stood at 13 nM; in series [1] it was 65 nM. The “Metabolic stability HLM % remaining in 30 min” value in series [3] is 71%. Also, the “Metabolic stability MLM % remaining in 30 min” value in series [4] is reported as 55%. Besides, the 50% effective concentration (EC50) with MM1S was 45 nM.
Taken in the same sequence, the figures for `O=C(NO)c1ccc(/C=C/C(=O)N2CC(CNC3CC3c3ccc(F)cc3)C2)cc1` (stereo not drawn) [Example 118, (E)-4-(3-(3-(((2-(4-fluorophenyl)cyclopropyl)amino)methyl)azetidin-1-yl)-3-oxoprop-1-en-1-yl)-N-hydroxybenzamide TFA Salt] were 37 nM, 58 nM, 77%, 76% and 21 nM.
As to `Nc1ccccc1NC(=O)c1ccc(CC(=O)N2CCC(CNC3CC3c3ccc(F)cc3)CC2)cc1` (stereo not drawn) [Example 147, N-(2-aminophenyl)-4-(2-(4-(((2-(4-fluorophenyl)cyclopropyl)amino)methyl)piperidin-1-yl)-2-oxoethyl)benzamide TFA Salt], the concentration for half-maximal inhibition (IC50) at LSD1 (read-out: LSD1 IC50) was 32 nM; in series [1], above 10000 nM. Also, the “Metabolic stability HLM % remaining in 30 min” value in series [3] was 48%. In addition, the “Metabolic stability MLM % remaining in 30 min” value in series [4] is listed as below 5%. In the series with MM1S, the EC50 was 29 nM.
Consider `Cc1noc(C)c1-c1ccc(C2CC2NCC2CCN(CCCc3ccc(C(=O)NO)cc3)CC2)cc1.O=C(O)C(F)(F)F` (stereo not drawn) [Example 64, 4-(3-(4-(((2-(4-(3,5-dimethylisoxazol-4-yl)phenyl)cyclopropyl)amino)methyl)piperidin-1-yl)propyl)-N-hydroxybenzamide TFA Salt], for which the IC50 stood at 59 nM against LSD1 and 58 nM in series [1]. The “Metabolic stability HLM % remaining in 30 min” value in series [3] stood at 82%. In series [4], the “Metabolic stability MLM % remaining in 30 min” value is 77%. The EC50 with MM1S (MM1S cells) was 11 nM.
In the case of `O=C(NO)c1ccc(CCCN2CC(CNC3CC3c3ccc(F)cc3)C2)cc1` (stereo not drawn) [Example 48, 4-(3-(3-(((2-(4-fluorophenyl)cyclopropyl)amino)methyl)azetidin-1-yl)propyl)-N-hydroxy benzamide TFA Salt], the concentration for half-maximal inhibition (IC50) stood at 29 nM at LSD1 (read-out: LSD1 IC50) and 184 nM in series [1]. Further, in series [3], the “Metabolic stability HLM % remaining in 30 min” value worked out at 85%. Further, in series [4], the “Metabolic stability MLM % remaining in 30 min” value is below 5%. In addition, the EC50 in the series on MM1S (MM1S cells) was 25 nM.
As to `O=C(NO)c1ccc(C(=O)NCCN2CCC(CNC3CC3c3ccc(F)c(F)c3)CC2)cc1` (stereo not drawn) [Example 90, N1-(2-(4-(((2-(3,4-difluorophenyl)cyclopropyl)amino)methyl)piperidin-1-yl)ethyl)-N4-hydroxyterephthalamide TFA Salt], the IC50 on LSD1 (read-out: LSD1 IC50) amounted to 21 nM; in series [1], 170 nM. In addition, the “Metabolic stability HLM % remaining in 30 min” value in series [3] was determined as 80%. Besides, the “Metabolic stability MLM % remaining in 30 min” value in series [4] is reported as 93%. For the same compound, in the series on MM1S, the EC50 is 339 nM.
Take `O=C(NO)c1ccc(/C=C/C(=O)N2CCC(CN[C@H]3C[C@@H]3c3ccc(F)cc3)CC2)cc1` [Example 115, 4-((E)-3-(4-((((1S,2R)-2-(4-fluorophenyl)cyclopropyl)amino)methyl)piperidin-1-yl)-3-oxoprop-1-en-1-yl)-N-hydroxybenzamide TFA Salt]: the IC50 at LSD1 (read-out: LSD1 IC50) came out at 65 nM; in series [1], 53 nM. For the same compound, the “Metabolic stability HLM % remaining in 30 min” value in series [3] came out at 75%. In addition, the “Metabolic stability MLM % remaining in 30 min” value in series [4] came out at 45%. Also, the EC50 in the series on MM1S (MM1S cells) stood at 10 nM.
For `Nc1ccc(F)cc1NC(=O)c1ccc(CCCN2CCC(CNC3CC3c3ccc(F)cc3)CC2)cc1` (stereo not drawn) [Example 132, N-(2-amino-5-fluorophenyl)-4-(3-(4-(((2-(4-fluorophenyl)cyclopropyl)amino)methyl)piperidin-1-yl)propyl)benzamide TFA Salt], the IC50 was 5 nM at LSD1 (read-out: LSD1 IC50) and above 10000 nM in series [1]. Further, in series [3], the “Metabolic stability HLM % remaining in 30 min” value is reported as 81%. Moreover, the “Metabolic stability MLM % remaining in 30 min” value in series [4] amounted to 80%. For the same compound, the EC50 with MM1S was found to be 21 nM.
For `Cc1noc(C)c1-c1ccc(C2CC2NCC2CCN(Cc3ccc(C(=O)Nc4ccccc4N)cc3)CC2)cc1` (stereo not drawn) [Example 143, N-(2-aminophenyl)-4-((4-(((2-(4-(3,5-dimethylisoxazol-4-yl)phenyl)cyclopropyl)amino)methyl)piperidin-1-yl)methyl)benzamide TFA Salt], in that order: 37 nM, above 10000 nM, 37%, 50% and 102 nM.
`Nc1ccccc1NC(=O)c1ccc(CCCN2CC3(CC(NC4CC4c4ccccc4)C3)C2)cc1` (stereo not drawn) [Example 127, N-(2-aminophenyl)-4-(3-(6-((2-phenylcyclopropyl)amino)-2-azaspiro[3.3]heptan-2-yl)propyl)benzamide TFA Salt]: the results for the IC50 (at LSD1 (read-out: LSD1 IC50); in series [1]) were 764 nM and above 10000 nM, respectively. Further, the “Metabolic stability HLM % remaining in 30 min” value in series [3] is given as 17%. The “Metabolic stability MLM % remaining in 30 min” value in series [4] is listed as 19%. Also, in the series on MM1S (MM1S cells), the EC50 is 126 nM.
Regarding `Nc1ccccc1NC(=O)c1ccc(CN2CCC(CNC3CC3c3ccc(-c4cncnc4)cc3)CC2)cc1` (stereo not drawn) [Example 144, N-(2-aminophenyl)-4-((4-(((2-(4-(pyrimidin-5-yl)phenyl)cyclopropyl)amino)methyl)piperidin-1-yl)methyl)benzamide TFA Salt], the 50% inhibitory concentration (IC50) is 41 nM at LSD1 (read-out: LSD1 IC50) and above 10000 nM in series [1]. Further, in series [3], the “Metabolic stability HLM % remaining in 30 min” value amounted to 68%. Also, the “Metabolic stability MLM % remaining in 30 min” value in series [4] is reported as 52%. Further, the EC50 in the series on MM1S turned out to be 152 nM.
`Nc1ccccc1NC(=O)c1ccc(OCCNC2CC2c2ccc(F)cc2)cc1` (stereo not drawn) [Example 148, N-(2-aminophenyl)-4-(2-((2-(4-fluorophenyl)cyclopropyl)amino)ethoxy) benzamide TFA Salt]: the 50% inhibitory concentration (IC50) was 24 nM on LSD1 (read-out: LSD1 IC50) and above 10000 nM in series [1]. The “Metabolic stability HLM % remaining in 30 min” value in series [3] turned out to be 46%. Moreover, the “Metabolic stability MLM % remaining in 30 min” value in series [4] stood at 34%. In addition, the EC50 with MM1S (MM1S cells) was determined as 40 nM.
